Test results reported in patent US20250129086A1, “COMPOUND FOR DEGRADING EGFR PROTEIN AND USE THEREOF” (TYK MEDICINES, INC., priority 2021, published 2025).

Experiments:
[1] = system: H1975 (EGFR L858R/T790M double mutation); test: Cell antiproliferative assay (CTG, 72 h), H1975; format: cell-based, human; conditions: Homo sapiens, NCI-H1975, 72 h, Table 2, H1975 cells
Summary of the method: (§1)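 Cells seeded at 1500-2500 per well, compounds added about 24 h later as a 1:4 gradient from 10,000 nM top concentration in triplicate. After 72 h, viability read by CellTiter-Glo luminescence relative to 0.1% DMSO and blank-medium controls; IC50 from curve fitting.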

[2] = system: PC-9 (EGFR exon 19 deletion); test: Cell antiproliferative assay (CTG, 72 h), PC-9; format: cell-based, human; conditions: Homo sapiens, PC-9, 72 h, Table 2, PC-9 cells
Summary of the method: as §1

[3] = system: HCC827 (exon 19 deletion mutation); test: Cell antiproliferative assay (CTG, 72 h), HCC827; format: cell-based, human; conditions: Homo sapiens, HCC827, 72 h, Table 2, HCC827 cells
Summary of the method: as §1

EGFR = target: T1, EGFR (Homo sapiens, UniProt P00533, DEL746-750); test: EGFR PROTAC In Cell Western assay in HCC827; format: cell-based; conditions: HCC827, EGFR degradation, 16 hours of incubation; for Dmax: HCC827, Table 4; for DC50: Table 4
T1 construct: host or cells: HCC827
Description: Test Example 2 EGFR PROTAC in Cell Western Assay
HCC827 cell culture medium was purchased from Corning. Cell line HCC827 was purchased from BeNa Culture Collection; EGF Receptor (D38B1) XP Rabbit mAb antibody and β-Actin (8H10D10) Mouse mAb antibody were from CST. IRDye 800CW, IRDye 680RD, and Intercept blocking solution (PBS) were purchased from Licor. Triton-100 was purchased from sigma, and 96-well black cell culture imaging microtiter plates were purchased from Agilent.
1) HCC827 cells were cell counted and cells were inoculated into 96-well black cell culture imaging microtiter plates at a density of 40,000 cells per well, with 100 μl per well. The plate was incubated overnight in a CO2 incubator.
2) Day 1: A gradient dilution of the compound to be tested was added to the cells of the culture plate (with a starting concentration of […], 9 concentrations, a dilution ratio of 1:3, 2 duplicate wells), with a final concentration of DMSO being 0.5%, and a blank control of DMSO without compound. The plate was placed in the cell culture incubator for a final 16 hours of incubation.
3) The culture medium was removed from the 96 wells with a pipette and the residual medium was washed with […] of PBS per well on a shaker for 5 min. After the removal of PBS, cells were quickly fixed by adding 150 μl of fresh fixation buffer (3.7% paraformaldehyde) and incubated for 20 min at room temperature.
4) The fixation buffer was removed and […] of Triton elution buffer (0.3% Triton-100) was added to wash for four times on a shaker for 5 minutes each time.
5)[…] LI-COR Odyssey blocking solution was added and the cells were incubated for 1.5 hours at room temperature with slow shaking on a shaker.
6) To block the samples, a primary antibody against EGFR and Actin were prepared using Antibody Dilution Buffer at a ratio of 1:300. The blocking solution was poured out and the diluted primary antibody was added (at a total volume of 50 μl/per well). The cell plate was covered and incubated at 4° C. overnight.
7) The cell plate was washed four times with PBS+Triton X-100 for 5 minutes each time.
8) Fluorescently labeled secondary antibodies IRDye® 680RD and IRDye® 800CW were diluted with Antibody Dilution Buffer (with a ratio of 1:600, at a total volume of 50 μl/well) and then incubated for one hour at room temperature, protected from light.
9) The cell plate was washed four times with PBS+Triton X-100 for 5 minutes each time.
After pipetting the PBS thoroughly, the plate was inverted and imaged on a Burroughs imager. A multiple exposure program was selected, IRDye 680RD Blot was chosen for the first channel, and IRDye 800CW Blot was chosen for the second channel. […] The blank group was the DMSO group, EGFR/Actin was calculated as the EGFR value of the corresponding sample wells, and the degradation rate=100-100*EGFR signal/DMSO signal. The DC50 and Dmax of the degraded EGFR proteins were calculated by fitting curves using the Prism software, 3-parameter method.

T1 sequence (P00533 with tags, fused parts or gaps DEL746-750): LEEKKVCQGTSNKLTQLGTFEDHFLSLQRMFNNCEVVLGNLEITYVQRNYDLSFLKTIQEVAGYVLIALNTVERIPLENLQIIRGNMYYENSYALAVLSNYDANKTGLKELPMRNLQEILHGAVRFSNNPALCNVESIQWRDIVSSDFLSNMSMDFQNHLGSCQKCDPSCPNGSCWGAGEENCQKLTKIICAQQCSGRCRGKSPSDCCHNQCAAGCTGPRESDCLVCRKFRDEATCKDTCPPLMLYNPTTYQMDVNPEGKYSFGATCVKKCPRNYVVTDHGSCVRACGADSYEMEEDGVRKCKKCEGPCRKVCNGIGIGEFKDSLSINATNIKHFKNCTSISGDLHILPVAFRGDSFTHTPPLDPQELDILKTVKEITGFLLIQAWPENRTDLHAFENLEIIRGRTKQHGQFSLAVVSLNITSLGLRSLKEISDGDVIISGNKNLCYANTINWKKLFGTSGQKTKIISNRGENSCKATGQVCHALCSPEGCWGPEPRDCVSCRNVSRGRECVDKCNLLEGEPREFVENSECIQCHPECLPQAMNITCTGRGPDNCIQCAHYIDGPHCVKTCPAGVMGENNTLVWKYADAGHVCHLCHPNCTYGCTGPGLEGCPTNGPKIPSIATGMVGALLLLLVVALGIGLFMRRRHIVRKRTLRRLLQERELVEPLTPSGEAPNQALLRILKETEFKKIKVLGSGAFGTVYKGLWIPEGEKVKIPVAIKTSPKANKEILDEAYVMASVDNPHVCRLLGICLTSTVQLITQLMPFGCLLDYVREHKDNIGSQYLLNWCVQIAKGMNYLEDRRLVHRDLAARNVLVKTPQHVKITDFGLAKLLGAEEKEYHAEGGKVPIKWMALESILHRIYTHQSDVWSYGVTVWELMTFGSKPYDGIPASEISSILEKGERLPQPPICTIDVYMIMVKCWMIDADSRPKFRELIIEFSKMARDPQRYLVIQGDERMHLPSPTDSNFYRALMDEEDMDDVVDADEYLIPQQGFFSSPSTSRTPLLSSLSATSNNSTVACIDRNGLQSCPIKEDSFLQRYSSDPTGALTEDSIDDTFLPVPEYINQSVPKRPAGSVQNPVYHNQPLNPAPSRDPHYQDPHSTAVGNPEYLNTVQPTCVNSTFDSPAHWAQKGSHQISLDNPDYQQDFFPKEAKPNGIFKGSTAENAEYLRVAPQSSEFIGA

| IC50 [1] [nM] | IC50 [2] [nM] | IC50 [3] [nM] | Dmax (EGFR) [%] | DC50 (EGFR) [µM] | SMILES |
| --- | --- | --- | --- | --- | --- |
| 10 to 100 | 100 to 1000 | 100 to 1000 | < 50 | 0.01 to 0.1 | COc1cc(N2CCC(N3CCN(C(=O)CCCCN4CCC(c5ccc(NC6CCC(=O)NC6=O)cc5)CC4)CC3)CC2)ccc1Nc1ncc(Cl)c(Nc2ccccc2N(C)S(C)(=O)=O)n1 (centres unmarked) [Compound T-220] |
| 10 to 100 | 100 to 1000 | 10 to 100 | 50 to 70 | 0.01 to 0.1 | C=CC(=O)Nc1cc(Nc2ncc(Cl)c(Nc3ccccc3C(C)=O)n2)c(OC)cc1N1CCN(C(=O)CN2CCC(c3ccc(NC4CCC(=O)NC4=O)cc3)CC2)CC1 (centres unmarked) [Compound T-91] |

The next lines start with the compound.

| SMILES | IC50 [1] [nM] | IC50 [2] [nM] | IC50 [3] [nM] | Dmax (EGFR) [%] | DC50 (EGFR) [µM] |
| --- | --- | --- | --- | --- | --- |
| COc1cc(N2CC3(CN(C(=O)CN4CCC(c5ccc(NC6CCC(=O)NC6=O)cc5)CC4)C3)C2)ccc1Nc1ncc(Cl)c(Nc2ccccc2C(C)=O)n1 (centres unmarked) [Compound T-66] | 10 to 100 | ≥ 1000 | 100 to 1000 | < 50 | 0.01 to 0.1 |
| COc1cc(N2CCN(C(=O)CN3CCC(c4ccc(NC5CCC(=O)NC5=O)cc4)CC3)CC2)ccc1Nc1ncc(Cl)c(Nc2ccccc2C(=O)C(C)C)n1 (centres unmarked) [Compound T-190] | 10 to 100 | 100 to 1000 | 100 to 1000 | 50 to 70 | ≥ 1 |
| COc1cc(N2C3CCC2CN(C(=O)CN2CCC(c4ccc(NC5CCC(=O)NC5=O)cc4)CC2)C3)ccc1Nc1ncc(Cl)c(Nc2ccccc2C(C)=O)n1 (centres unmarked) [Compound T-191] | 10 to 100 | 100 to 1000 | 100 to 1000 | 50 to 70 | 0.1 to 1 |
| COc1cc(N2CCN(CCN3CCC(c4ccc(NC5CCC(=O)NC5=O)cc4)CC3)CC2)ccc1Nc1ncc(Cl)c(Nc2ccccc2C(C)=O)n1 (centres unmarked) [Compound T-182] | 10 to 100 | 100 to 1000 | 100 to 1000 | 50 to 70 | 0.01 to 0.1 |
| COc1cc(N2CCC(N(C)C(=O)CN3CCC(c4ccc(NC5CCC(=O)NC5=O)cc4)CC3)CC2)ccc1Nc1ncc(C(F)(F)F)c(Nc2ccccc2C(C)=O)n1 (centres unmarked) [Compound T-163] | 10 to 100 | 100 to 1000 | 100 to 1000 | 50 to 70 | 0.1 to 1 |
